According to article PMC10086185, “Synthesis, radiolabeling, and evaluation of a (4-quinolinoyl)glycyl-2-cyanopyrrolidine analogue for fibroblast activation protein (FAP) PET imaging” (Frontiers in Bioengineering and Biotechnology, 2023):

How the values were obtained:
U87MG cells = test: Cellular uptake of [^18F]3 in U87MG cells; assay type: cell-based; conditions: U87 cells
Method: (§1) Briefly, all cells were divided into the following two groups: A: blocking group and B: vehicle group. All cells were cultured, grouped, and plated (approximately 2*10^6 cells per well) before use. Cells were treated with [^18F]3 (74 KBq) and incubated at 37°C under a 5% CO2 atmosphere. […] Incubated at 37°C for 1 h, the medium from each well was removed, and the cells were washed twice with 1 mL of PBS. The medium and the PBS from each well were combined and counted in a Gamma counter (PerkinElmer Wizard 2470) for radioactivity counts. The cells were then handled with 1 mL of 1 M NaOH, and the lysates were also counted in the Wizard 2470 gamma counter. The uptake ratios for each group were then calculated with this equation: %Dose = […](medium counts + PBS counts + cell lysate counts).

[1] = tested on: A549-FAPI cells (human FAP-expressing A549); test: Cellular uptake of [^18F]3 in A549-FAPI cells; assay type: cell-based
Method: as §1

U87MG xenograft tumors = test: Micro-PET/CT imaging, U87MG xenograft tumors; assay type: in vivo, BALB/c nude mice; conditions: U87MG xenografted tumors, within 90 min
Method: BALB/c nude mice used in this study were obtained from the Animal Center of Sichuan University. Tumor-bearing mouse models were established by the subcutaneous injection of 100 µL of PBS suspension containing approximately 1*10^6 tumor cells to the body side of the subjects. The tumor volume was monitored every day, and the tumor-bearing mice were ready for imaging once the tumor volume reached 0.5 mm^3 (tumor volume can be calculated by this equation: Volume = 0.5 * long tail * short tail *short tail). Micro-PET/CT imaging studies were performed on the IRIS Micro-PET/CT system (Inviscan SAS, France). Tumor-bearing mice were injected with approximately 11.2–14.8 MBq of [^18F]3 (200 µL) via the tail vein under anaesthetization by isoflurane. Static PET images were obtained at designated time points and were reconstructed with a 3D-OSEM algorithm using a Monte Carlo-based accurate detector model. Then, 170 sec-CT acquisition was conducted with 50 kV, 1 mA X-ray output for attenuation correction and anatomical orientation. […]
BALB/c nude mice used in this study were obtained from the Animal Center of Sichuan university. […] The tumor volume was monitored every day and the tumor-bearing mice were ready for imaging once the tumor volume reach 0.5 mm^3 (tumor volume can be calculated by this equation: Volume = 0.5 * long tail * short tail *short tail). […]

[2] = Micro-PET/CT imaging, organ SUV in tumor-bearing nude mice; assay type: in vivo, BALB/c nude mice
Method: BALB/c nude mice used in this study were obtained from the Animal Center of Sichuan University. Tumor-bearing mouse models were established by the subcutaneous injection of 100 µL of PBS suspension containing approximately 1*10^6 tumor cells to the body side of the subjects. The tumor volume was monitored every day, and the tumor-bearing mice were ready for imaging once the tumor volume reached 0.5 mm^3 (tumor volume can be calculated by this equation: Volume = 0.5 * long tail * short tail *short tail). Micro-PET/CT imaging studies were performed on the IRIS Micro-PET/CT system (Inviscan SAS, France). Tumor-bearing mice were injected with approximately 11.2–14.8 MBq of [^18F]3 (200 µL) via the tail vein under anaesthetization by isoflurane. Static PET images were obtained at designated time points and were reconstructed with a 3D-OSEM algorithm using a Monte Carlo-based accurate detector model. Then, 170 sec-CT acquisition was conducted with 50 kV, 1 mA X-ray output for attenuation correction and anatomical orientation. ROIs (regions of interest) were drawn on the lung, kidney, liver, and tumor by OsiriX software. SUV (standardized uptake value) of the ROIs was directly obtained from OsiriX for each subject according to this formula: SUV = Voxal value (Bq/mL) * Body weight (kg)/(Decay corrected Dose (Bq) * 1,000 (g/kg)).
BALB/c nude mice used in this study were obtained from the Animal Center of Sichuan university. Tumor-bearing mice model were established by the subcutaneous injection of 100 µL of PBS suspension containing approximately 1*10^6 tumor cells to the body side of the subjects. The tumor volume was monitored every day and the tumor-bearing mice were ready for imaging once the tumor volume reach 0.5 mm^3 (tumor volume can be calculated by this equation: Volume = 0.5 * long tail * short tail *short tail). Micro-PET/CT imaging studies were performed on the IRIS Micro-PET/CT system (Inviscan SAS, France). Tumor-bearing mice were injected with approximately 11.2-14.8 MBq of [^18F]3 (200 µL) via tail vein under anaesthetization by isoflurane. Static PET images were obtained at designated time points and were reconstructed with a 3D-OSEM algorithm using a Monte-Carlo based accurate detector model. A 170 sec-CT acquisition was conducted with 50 kV, 1 mA X-ray output for attenuation correction and anatomical orientation. ROIs (regions of interest) were drawn on lung, kidney, liver and tumor by Osirix software. SUV (standardized uptake value) of the ROIs was directly obtained from Osirix for each subject according to this formula: SUV = Voxal value (Bq/mL) * Body weight (kg)/(Decay corrected Dose (Bq) * 1000 (g/kg)).

[3] = 1 h, pre-treatment with compound 3, 10 µM

SMILES: N#C[C@@H]1CC(F)(F)CN1C(=O)CNC(=O)c1ccnc2ccc([18F])cc12 [[^18F]3]
- Cellular uptake ratio, blocking group (U87MG cells; [3]): 1.19% ± 0.02%
- Cellular uptake ratio (U87MG cells; 1 h incubation, vehicle group): 1.50% ± 0.13%
- Cellular uptake ratio, blocking group [1, 3]: 0.56% ± 0.03%
- Cellular uptake ratio ([1]; 1 h incubation, vehicle group): 1.07% ± 0.01%
- Tumor SUV (U87MG xenograft tumors): greater than 0.22
- SUV in the liver ([2]; 15 min p.i.): about 5.0
- SUV in the kidney ([2]; 90 min p.i.): 3.0
- SUV in the bladder ([2]; end of the scan): greater than 8.0
- SUV in the liver ([2]; end of the scan (90 min)): 2.0
- SUV in the kidney ([2]; initial): about 5.0
- SUV in the brain ([2]; mouse, in vivo): less than 0.3
